# Data as given in patent EP4420661B1, “SMALL MOLECULES TARGETING GLYCOPROTEIN VI AS ANTIPLATELET AGENTS FOR USE IN THE PREVENTION AND/OR TREATMENT OF THROMBOSIS AND ASSOCIATED PATHOLOGIES” (Universidade de Santiago de Compostela, priority 2023, dated 2024).
# How the values were obtained:
# [1] = metabolic stability, dog microsomes; assay type: in vitro ADME
# Experimental: (§1) Microsomes from Tebu-bio Xenotech were employed in the assay, having a content of 20 mg/ml of protein. The following quantities were added to each well of a 96-well microplate. Table 6: Metabolic stability assay.
# (§2) Plates were incubated at 37°C and 75 µL samples were taken at 0, 10, 20, 40 and 60 minutes.
# (§3) Samples were transferred to a microplate and 75 µl Acetonitrile + IS(Rolipram) were added for inactivating the microsomes, and 30 µl of H2O with 0.5% formic acid for improving the chromatographic conditions and kept at 4°C. When all the samples were taken the plate was centrifuged at […] for 30 min at 15°C. Stationary phase: ACQUITY BEH C18 1.7µm 2.1x50mm (Waters) Mobile phase: A: 0.1% formic; B: acetonitrile+0.1% formic acid Gradient: Table 6: UPLC gradient / Metabolic stability assay
# (§4) Metabolic stability was calculated from the logarithm of the remaining compound at each of the times evaluated.
# [2] = metabolic stability, mouse microsomes; assay type: in vitro ADME
# Experimental: Samples were transferred to a microplate and 75 µl Acetonitrile + IS(Rolipram) were added for inactivating the microsomes, and 30 µl of H2O with 0.5% formic acid for improving the chromatographic conditions and kept at 4°C. When all the samples were taken the plate was centrifuged at 46000 g for 30 min at 15°C. Stationary phase: ACQUITY BEH C18 1.7µm 2.1x50mm (Waters) Mobile phase: A: 0.1% formic; B: acetonitrile+0.1% formic acid Gradient: Table 6: UPLC gradient / Metabolic stability assay
# [3] = metabolic stability, rat microsomes; assay type: in vitro ADME
# Experimental: as §1, §2, §3, §4
# [4] = metabolic stability, human microsomes; assay type: in vitro ADME
# Experimental: as §1, §2, §3, §4
# [5] = target: T1, GPVI (Homo sapiens, UniProt Q9HCN6); assay: label-free biophysical binding assay based on dynamic mass redistribution (DMR), immobilized GPVI; conditions: for interaction profile with GPVI (in words): concentration-response; for interaction with GPVI, Mean: DMR response
# T1 sequence (Q9HCN6 21-267 limits assumed): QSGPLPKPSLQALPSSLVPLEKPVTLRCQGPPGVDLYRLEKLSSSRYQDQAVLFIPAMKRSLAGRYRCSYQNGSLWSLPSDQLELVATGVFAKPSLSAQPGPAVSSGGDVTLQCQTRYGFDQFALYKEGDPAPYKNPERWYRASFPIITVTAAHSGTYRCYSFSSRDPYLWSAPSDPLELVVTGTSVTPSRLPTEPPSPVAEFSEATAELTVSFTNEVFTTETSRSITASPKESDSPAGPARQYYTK
# Description: A biophysical assay to test direct interaction with GPVI was developed by using a label-free methodology based on dynamic mass redistribution (DMR).
# This protocol consists of immobilizing the target protein in a surface by chemical means and then measure the refractory index of a light directed to the bottom of the surface, which contains a sensor. It has been used previously for other targets to determine the potency of ligands such as peptides and molecules [Akhter et al., (2017) and Álvarez-Coiradas et al., (2020)].
# Briefly, EnSpire LFB high sensitivity plates (PerkinElmer 6057460, USA) were activated with 400 mM EDC (N-(3-dimethylaminopropyl)-N'- ethylcarbodiimide hydrochloride) (Sigma Aldrich, UK) and 100 mM sulfo-NHS (sulfo-N-hydroxysulfosuccinimide) (Thermo Fisher, USA) diluted in ultrapure water for 30 min at room temperature. Microplates were subsequently washed with ultrapure water. GPVI protein was immobilized (25 µg/ml) in 20 mM sodium acetate buffer, pH 5.5. After an overnight incubation at 4 °C, the microplate was wa- shed with PBS with 0.005% Tween-20, pH 7.4 (assay buffer). Baseline was read after three hours on EnSpireTM 2300 Multilabel Plate Reader (PerkinElmer, Singapore). Compounds were added to the microplate, incubated for 1 h and the final read was performed in the EnSpireTM 2300 Multilabel Plate Reader. Recombinant CRP and assay buffer were employed as a positive and a negative control, respectively.
# Compounds were assayed by means of concentration-response curves with concentrations between 100 µM and 0.4 µM (1:3 serial dilutions in triplicates), while CRP was assayed similarly starting with 7µg/ml top dose and a total of 6 concentrations (1:2 serial dilutions in triplicates). Response (pm) was obtained by subtracting the baseline measurement from the final read.
# [6] = * from Dehring et al. (2004); cited from earlier work
# [7] = physchem; conditions: 37 °C, aqueous buffer, kinetic from dmso stock
# Experimental: (§5) Solubility was determined by nephelometry to assess its potential impact on the bioassays at active concentrations.
# (§6) Then, said compounds were incubated for 2 hours at 37°C and read in a NEPHELOstar Plus (BMG LABTECH).
# [8] = test system: human platelets; assay: intracellular Ca+2 mobilization assay, CRP-activated washed platelets (FLIPR Calcium 4); assay type: cell-based; conditions: Platelet, calcium mobilization in human platelets, read-out: % Inhibition of CRP effect at 1µM, Mean
# Experimental: An intracellular Ca^+2 mobilization assay was used to test the activity of the ligands in platelets. This assay measures the changes in calcium in real time by fluorophore dye Calcium 4, providing a useful way to characterize platelet activation by GPVI signaling [Barrachina et al. (2021)].
# Washed platelets (5x10E6) were incubated with FLIPR Calcium 4 reagent (Molecular Devices LLC, San Jose, CA, USA) in a 384-well transparent bottom plate (Greiner Bio-One International GmbH, Kremsmünster, Austria) and supplemented with Probenecid (Invitrogen™, Carlsbad, CA, USA) 0.07% for 1 h at 37 °C. Platelets were co-incubated for 10 min with the tested compounds and inhibitors of secondary mediators (2 U/mL apyrase and 10 microM indomethacin (Sigma-Aldrich, Saint Louis, MO, USA)) under nonaggregating conditions (9 microM eptifibatide (Cayman Chemicals, Ann Arbor, MI, USA)). Then, the GPVI-specific agonist Collagen-Related Peptide (CRP) was added to the platelet suspension at different doses. Both potential GPVI inhibitors and CRP were automatically dispensed by FDSS7000EX Functional Drug Screening System (Hamamatsu Photonics, Hamamatsu, Japan). Intracellular Ca^2+ mobilization was assessed by measuring fluorescence changes ([…] wavelengths) in real time for 15 min after the addition of the agonist. 100% was expressed as maximal Ca^2+ release in platelets treated with the agonist CRP. To determine IC50, compounds were tested at 9 different concentrations in duplicates starting from 10 uM and performing 1:3 serial dilutions. The analysis of the data was performed with GraphPad Prism® software (version 6.0e, March 2014) (GraphPad Software, San Diego, CA, USA) by carrying out a nonlinear regression fit for log(inhibitor) vs. relative CRP activity using a Hill slope of -1, and top and bottom constraints of 100 and 0, respectively.
# [9] = test system: human platelets; assay: platelet aggregation assay, CRP-induced; assay type: cell-based; conditions: 10 µM; CRP 1 µg/mL; Figure 2
# Experimental: Platelet aggregation assays were carried out to assess the potency of the active compounds as previously described [Barrachina et al. (2021)].
# Briefly, human platelets from at least =7 healthy individuals were isolated and washed. Then, the suspension was incubated with the compounds at 10 µM at 37 ∘C for 4 min in a Chrono-log® 490-X aggregometer (Chrono-log Corporation, Havertown, PA, USA). After that, platelets were stimulated with the agonist CRP at 1 µg/mL for 5 min.
# [10] = test system: human platelets; assay: platelet spreading assay on CRP (phalloidin staining, confocal microscopy); assay type: cell-based; conditions: 10µM; CRP 1µg/mL; Figure 4
# Experimental: Platelet spreading experiments were carried out to assess the potency of the compounds of formula (I), exemplified by compounds (If)and (Ih).
# Platelets can change from a rounded, non-adherent form to adhere and flatten shape when exposed to ligands. This "spreading" effect can lead to the formation of cytoskeletal protein rearrangement. Platelet adhesion and extent of spreading (area covered) can be quantified.
# Briefly, human platelets from healthy individuals were isolated and washed. Then, platelets were incubated with the inhibitors at 10µM for 5 min at room temperature and then for 45 min at 37°C in coverslips coated with 1µg/mL of agonist (CRP).
# The images of platelet shape given by phalloidin staining were acquired by confocal fluorescence microscopy and the area analyzed by ImageJ [Onselaer et al., (2020)].
# [11] = solubility by nephelometry; conditions: 37 °C, aqueous buffer, kinetic from dmso stock
# Experimental: as §5, §6
# [12] = test system: human platelets; assay: platelet aggregation selectivity assay (agonists collagen, rhodocytin, thrombin); assay type: cell-based; conditions: 10 µM
# Experimental: In addition, an assessment of the selectivity of the active compound (Ic)at 10 µM was carried out based on aggregation assays. Briefly, human platelets from healthy individuals were isolated and washed. The agonists used in this selectivity assay were collagen, rhodocytin, and thrombin.
compound,measurement,setting,value
"C[C@]12CC[C@H]3[C@@H](CCC4=CC(=O)CC[C@@]43C)[C@@H]1CC[C@@H]2O [Testosterone, reference compound]",% remanent (*),"[1]; Dog microsomes, (*) sampling time 60 min",49.1%
same,half-life,"[1]; dog, dog microsomes",59.9 min
same,microsomal CLint,"[1]; dog, dog microsomes",11.8 µL/min/mg
same,t1/2,[2],4.76 min
same,% remanent (*),[2]; (*) sampling time 60 min,0.06%
same,% remanent (*),"[3]; Rat microsomes, (*) sampling time 60 min",0.14%
same,half-life,"[3]; rat, rat microsomes",0.9 min
same,t1/2,[4],12.95 min
same,% remanent (*),[4]; (*) sampling time 60 min,4.02%
collagen related peptide [CRP],interaction profile with GPVI (in words),[5],robust dose-dependent response
"CC(=O)[C@H]1CC[C@H]2[C@@H]3CCC4=CC(=O)CC[C@]4(C)[C@H]3CC[C@]12C [Progesterone, reference compound]",Reported solubility,[6],3.7* µM
same,solubility at 2 h,[7],5.1 µM
O=C(Cc1ccc2c(c1)OCCO2)Nc1nc(-c2ccc(Cl)cc2)cs1 [Compound (Ib)],solubility at 2 h,[7]; pbs with 1% dmso,50 µM
same,inhibition at 1 µM,[8],15.9%
same,inhibition of platelet aggregation (in words),[9],consistent inhibition of platelet aggregation
same,"interaction with GPVI, Mean",[5]; Compound concentration (1µM),13.76 pm
same,"interaction with GPVI, Mean",[5]; Compound concentration (10µM),20.47 pm
same,platelet spreading on CRP (in words),[10],inhibition of platelet spreading on CRP
"O=C(Cc1ccc2c(c1)OCCO2)Nc1nc2c(Cl)cccc2s1 [Ref. compound B, reference compound]","interaction with GPVI, Mean",[5]; Compound concentration (1µM),6.77 pm
same,"interaction with GPVI, Mean",[5]; Compound concentration (10µM),-16.01 pm
same,interaction profile with GPVI (in words),[5]; DMR,did not show a good interaction profile
"COc1cc2nc(N3CCN(C(=O)c4ccco4)CC3)nc(N)c2cc1OC [Prazosin, reference compound]",Reported solubility,[6],26.3* µM
same,solubility at 2 h,[7],77.2 µM
O=C(Cc1ccc2c(c1)OCCO2)Nc1nc(-c2ccc3c(c2)CCCC3)cs1 [Compound (Id)],solubility at 2 h,[7]; pbs with 1% dmso,21.9 µM
same,inhibition at 1 µM,[8],36%
same,"interaction with GPVI, Mean",[5]; Compound concentration (1µM),17.38 pm
same,"interaction with GPVI, Mean",[5]; Compound concentration (10µM),28.66 pm
O=C(Cc1ccc2c(c1)OCCO2)Nc1nc(-c2ccc3ccccc3c2)cs1 [Compound (Ie)],solubility at 2 h,[7]; pbs with 1% dmso,22.5 µM
same,inhibition at 1 µM,[8],24.6%
same,inhibition of platelet aggregation (in words),[9],consistent inhibition of platelet aggregation
same,"interaction with GPVI, Mean",[5]; Compound concentration (1µM),6.50 pm
same,"interaction with GPVI, Mean",[5]; Compound concentration (10µM),25.16 pm
"Cc1ccc2nc(NC(=O)Cc3ccc4c(c3)OCCO4)sc2c1 [Ref. compound A, reference compound]","interaction with GPVI, Mean",[5]; Compound concentration (1µM),-9.78 pm
same,"interaction with GPVI, Mean",[5]; Compound concentration (10µM),1.91 pm
same,interaction profile with GPVI (in words),[5]; DMR,did not show a good interaction profile
"C[C@H]1O[C@@H](O[C@H]2[C@@H](O)C[C@H](O[C@H]3[C@@H](O)C[C@H](O[C@H]4CC[C@@]5(C)[C@H](CC[C@@H]6[C@@H]5C[C@@H](O)[C@]5(C)[C@@H](C7=CC(=O)OC7)CC[C@]65O)C4)O[C@@H]3C)O[C@@H]2C)C[C@H](O)[C@@H]1O [Digoxin, reference compound]",Reported solubility,[6],59.3* µM
same,solubility at 2 h,[11],96.9 µM
O=C(Cc1ccc2c(c1)OCCO2)Nc1nc(-c2ccc(Br)cc2)cs1 [Compound (Ic)],solubility at 2 h,[7]; pbs with 1% dmso,51.9 µM
same,inhibition at 1 µM,[8],34%
same,inhibition of platelet aggregation (in words),[9],consistent inhibition of platelet aggregation
same,"interaction with GPVI, Mean",[5]; Compound concentration (1µM),12.37 pm
same,"interaction with GPVI, Mean",[5]; Compound concentration (10µM),25.42 pm
same,"platelet aggregation, platelets exposed to collagen (in words)",[12]; agonist collagen,consistent inhibition of platelet aggregation
same,platelet aggregation induced by rhodocytin (in words),[12]; agonist rhodocytin,unchanged
same,platelet aggregation induced by thrombin (in words),[12]; agonist thrombin,unchanged
same,platelet spreading on CRP (in words),[10],inhibition of platelet spreading on CRP
O=C(Cc1ccc2c(c1)OCCO2)Nc1nc(-c2ccccc2)cs1 [Compound (Ia)],solubility at 2 h,[7]; pbs with 1% dmso,5.4 µM
same,inhibition at 1 µM,[8],53.7%
same,"interaction with GPVI, Mean",[5]; Compound concentration (1µM),10.8 pm
same,"interaction with GPVI, Mean",[5]; Compound concentration (10µM),19.81 pm
